Laboratory results from US20210369853A1, “TARGETED PROTEASE DEGRADATION PLATFORM” (EUBULUS BIOTHERAPEUTICS INC., priority 2018, published 2021).
Like-named read-outs stand apart in the source and are kept apart here.

How the values were obtained:
Type in all cases: cell-based
[1] = test system: Human Colon Cancer HCT-116; experiment: Cell proliferation experiment (Alarm blue, 72 h, EC50); details: Homo sapiens, HCT-116; HCT116 cells
Procedure, shortened: (§1)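 Duplicate wells per concentration, 5-fold dilution series, 72 h continuous exposure of log-phase cells; read-out Alamar blue fluorescence, EC50 derived by curve fit with minimum, maximum and slope terms.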

[2] = test system: Human Monocytic Leukemia MV4-11; experiment: as above; details: Homo sapiens
Procedure, shortened: as §1

BRD4 = molecular target: T1, BRD4 (Homo sapiens, UniProt O60885); experiment: Western blot, protein degradation (DC50)
T1 construct: endogenous in cells
Description: (§2) Cells were treated with the compound for a period of time, after that the cells were collected by centrifugation. After washing with PBS, the cells were lysed by adding RIPA buffer; the cell lysate were added to the loading buffer and then appropriate volume were taken and slowly added to the corresponding wells of the gel plate, and run the SDS-PAGE gel (4%-12%). After running the gel, transferred to the PVDF membrane and sealed with 5% skimmed milk powder at room temperature for 1 hour. The membrane was placed in the primary antibody diluted with 5% skimmed milk powder and shaked slowly overnight at 4° C. After incubation with primary antibody, the membrane was washed 3 times using a TBST shaker; added secondary antibody diluted with 5% skimmed milk powder corresponding to the primary antibody, and shaked slowly at room temperature for 1 hour. After incubation with secondary antibody, the membrane was washed 3 times using the TBST shaker again. The PVDF membrane was flatted in the cassette, the strip was evenly infiltrated with ECL developer solution, and placed in ChemDoc XRS+ gel imager for taking pictures. The intensity of protein bands was analyzed quantitatively using ImageJ software.

PLK1 = molecular target: T2, PLK1 (Homo sapiens, UniProt P53350); experiment: Western blot, protein degradation (DC50)
T2 construct: endogenous in cells
Description: as §2

[3] = 6 h, western blot, read-out: BRD4 DC50 (6 h)
[4] = 6 h, western blot, read-out: PLK1 DC50 (6 h)
[5] = 24 h, read-out: BRD4 DC50 (24 h)
[6] = 24 h, western blot, read-out: BRD4 DC50 (24 h)
[7] = 24 h, western blot, read-out: PLK1 DC50 (24 h)

T2 sequence (P53350 whole entry): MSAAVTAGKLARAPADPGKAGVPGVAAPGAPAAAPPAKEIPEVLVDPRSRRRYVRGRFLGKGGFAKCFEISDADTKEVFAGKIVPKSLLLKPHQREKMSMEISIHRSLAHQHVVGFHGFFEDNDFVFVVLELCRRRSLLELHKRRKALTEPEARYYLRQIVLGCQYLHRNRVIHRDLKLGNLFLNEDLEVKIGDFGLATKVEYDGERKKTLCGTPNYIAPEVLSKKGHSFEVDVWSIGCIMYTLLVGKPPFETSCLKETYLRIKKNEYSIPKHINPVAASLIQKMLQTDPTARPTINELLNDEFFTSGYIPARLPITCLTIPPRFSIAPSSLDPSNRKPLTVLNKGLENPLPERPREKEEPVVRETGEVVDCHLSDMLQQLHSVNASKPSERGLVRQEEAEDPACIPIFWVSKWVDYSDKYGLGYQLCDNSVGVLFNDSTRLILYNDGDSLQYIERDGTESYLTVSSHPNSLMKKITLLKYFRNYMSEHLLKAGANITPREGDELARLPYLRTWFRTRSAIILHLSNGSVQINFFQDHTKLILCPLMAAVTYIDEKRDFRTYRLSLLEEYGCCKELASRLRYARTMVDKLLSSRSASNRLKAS

Row | SMILES | EC50 [1] [nM] | EC50 ([2]; MV4-11, MV4;11 cells) [nM] | further results
1 | O=C1CCC(N2Cc3c(NC(=O)COCCOCCNC(=O)c4ccc(Nc5ncc6c(n5)-c5ccc(Cl)cc5C(c5c(F)cccc5F)=NC6)cc4)cccc3C2=O)C(=O)N1 (centres unmarked) [UB-180559] | > 1000 | 100 to 1000 | 
2 | CC[C@@H]1C(=O)N(C)c2cnc(Nc3ccc(C(=O)NCCNc4cccc5c4CN(C4CCC(=O)NC4=O)C5=O)cc3OC)nc2N1C1CCCC1 (some centres unmarked) [UB-180567] |  | 10 to 100 | DC50 (BRD4; [3]): > 1000 nM; DC50 (PLK1; [4]): > 1000 nM
3 | O=C1CCC(N2Cc3c(NC(=O)COCCOCCNC(=O)[C@]4(Cc5cccc(Nc6nccs6)n5)CC[C@@H](Oc5cccc(Cl)c5F)CC4)cccc3C2=O)C(=O)N1 (some centres unmarked) [UB-180572] | > 1000 | > 1000 | 
4 | O=C1CCC(N2Cc3c(NC(=O)COCCOCCOCCNC(=O)[C@]4(Cc5cccc(Nc6nccs6)n5)CC[C@@H](Oc5cccc(Cl)c5F)CC4)cccc3C2=O)C(=O)N1 (some centres unmarked) [UB-180573] | > 1000 | > 1000 | 
5 | O=C1CCC(N2Cc3c(NC(=O)CCCNC(=O)[C@]4(Cc5cccc(Nc6nccs6)n5)CC[C@@H](Oc5cccc(Cl)c5F)CC4)cccc3C2=O)C(=O)N1 (some centres unmarked) [UB-180574] | > 1000 | > 1000 | 
6 | O=C1CCC(N2Cc3c(NC(=O)CCOCCOCCOCCOCCNC(=O)[C@]4(Cc5cccc(Nc6nccs6)n5)CC[C@@H](Oc5cccc(Cl)c5F)CC4)cccc3C2=O)C(=O)N1 (some centres unmarked) [UB-180575] | > 1000 | 10 to 100 | 
7 | O=C1CCC(N2Cc3c(NC(=O)COCCNC(=O)[C@]4(Cc5cccc(Nc6nccs6)n5)CC[C@@H](Oc5cccc(Cl)c5F)CC4)cccc3C2=O)C(=O)N1 (some centres unmarked) [UB-180577] | > 1000 | > 1000 | 
8 | CC[C@@H]1C(=O)N(C)c2cnc(Nc3ccc(C(=O)NCCCNc4cccc5c4C(=O)N(C4CCC(=O)NC4=O)C5=O)cc3OC)nc2N1C1CCCC1 (some centres unmarked) [UB-180579] |  | 10 to 100 | DC50 (BRD4; 6 h, read-out: BRD4 DC50 (6 h)): 100 to 1000 nM; DC50 (PLK1; 6 h, read-out: PLK1 DC50 (6 h)): 100 to 1000 nM
9 | O=C1CCC(N2Cc3c(NC(=O)COCCOCCOCCOCCNC(=O)[C@]4(Cc5cccc(Nc6nccs6)n5)CC[C@@H](Oc5cccc(Cl)c5F)CC4)cccc3C2=O)C(=O)N1 (some centres unmarked) [UB-180582] | > 1000 | 10 to 100 | 
10 | O=C1CCC(N2Cc3c(NC(=O)COCCCCNC(=O)[C@]4(Cc5cccc(Nc6nccs6)n5)CC[C@@H](Oc5cccc(Cl)c5F)CC4)cccc3C2=O)C(=O)N1 (some centres unmarked) [UB-180586] | > 1000 | > 1000 | 
11 | O=C1CCC(N2Cc3c(NC(=O)COCCCNC(=O)[C@]4(Cc5cccc(Nc6nccs6)n5)CC[C@@H](Oc5cccc(Cl)c5F)CC4)cccc3C2=O)C(=O)N1 (some centres unmarked) [UB-180588] | > 1000 | > 1000 | 
12 | O=C1CCC(N2Cc3c(NC(=O)CCOCCOCCNC(=O)[C@]4(Cc5cccc(Nc6nccs6)n5)CC[C@@H](Oc5cccc(Cl)c5F)CC4)cccc3C2=O)C(=O)N1 (some centres unmarked) [UB-180590] | > 1000 | > 1000 | 
13 | CC[C@@H]1c2c(C#N)ncn2-c2cnc(Nc3ccc(C(=O)NCCOCCOCCOCC(=O)Nc4cccc5c4C(=O)N(C4CCC(=O)NC4=O)C5=O)cc3OC)nc2N1Cc1ccc(Br)cc1 (some centres unmarked) [UB-180594] |  |  | DC50 (BRD4; 6 h, read-out: BRD4 DC50 (6 h)): > 1000 nM; DC50 (PLK1; 6 h, read-out: PLK1 DC50 (6 h)): > 1000 nM
14 | CC[C@@H]1C(=O)N(C)c2cnc(Nc3ccc(C(=O)NCCOCCOCCOCC(=O)N[C@H](C(=O)N4C[C@H](O)C[C@H]4C(=O)NCc4ccc(-c5scnc5C)cc4)C(C)(C)C)cc3OC)nc2N1Cc1ccc(Br)cc1 [UB-180601] |  |  | DC50 (BRD4; 6 h, read-out: BRD4 DC50 (6 h)): > 1000 nM; DC50 (PLK1; 6 h, read-out: PLK1 DC50 (6 h)): > 1000 nM
15 | CC[C@@H]1C(=O)N(C)c2cnc(Nc3ccc(C(=O)NCCOCCOCCOCCC(=O)N[C@H](C(=O)N4C[C@H](O)C[C@H]4C(=O)NCc4ccc(-c5scnc5C)cc4)C(C)(C)C)cc3OC)nc2N1Cc1ccc(Br)cc1 [UB-180602] |  |  | DC50 (BRD4; 6 h, read-out: BRD4 DC50 (6 h)): > 1000 nM; DC50 (PLK1; 6 h, read-out: PLK1 DC50 (6 h)): > 1000 nM
16 | O=C1CCC(N2Cc3c(NC(=O)CCOCCCOCCOCCNC(=O)c4ccc(Nc5ncc6c(n5)-c5ccc(Cl)cc5C(c5c(F)cccc5F)=NC6)cc4)cccc3C2=O)C(=O)N1 (centres unmarked) [UB-180610] | > 1000 | 10 to 100 | 

Row | SMILES | EC50 [1] [nM] | EC50 ([2]; MV4-11, MV4;11 cells) [nM] | further results
17 | O=C1CCC(N2Cc3c(NC(=O)CCOCCCOCCOCCNC(=O)[C@]4(Cc5cccc(Nc6nccs6)n5)CC[C@@H](Oc5cccc(Cl)c5F)CC4)cccc3C2=O)C(=O)N1 (some centres unmarked) [UB-180611] | > 1000 | 10 to 100 | 
18 | O=C1CCC(N2Cc3c(NC(=O)CCNC(=O)[C@]4(Cc5cccc(Nc6nccs6)n5)CC[C@@H](Oc5cccc(Cl)c5F)CC4)cccc3C2=O)C(=O)N1 (some centres unmarked) [UB-180616] | > 1000 | > 1000 | 
19 | O=C1CCC(N2Cc3c(NC(=O)CCNC(=O)c4ccc(Nc5ncc6c(n5)-c5ccc(Cl)cc5C(c5c(F)cccc5F)=NC6)cc4)cccc3C2=O)C(=O)N1 (centres unmarked) [UB-180617] | > 1000 | > 1000 | 
20 | CC[C@@H]1C(=O)N(C)c2cnc(Nc3ccc(C(=O)NCCCOCC(N)COCCC(=O)Nc4cccc5c4CN(C4CCC(=O)NC4=O)C5=O)cc3OC)nc2N1C1CCCC1 (some centres unmarked) [UB-180624] |  | 10 to 100 | DC50 (BRD4; [5]): < 10 nM
21 | Cc1sc2c(c1C)C(c1ccc(Cl)cc1)=N[C@@H](CC(=O)NCCCNCCCCCCC(=O)Nc1cccc3c1CN(C1CCC(=O)NC1=O)C3=O)c1nnc(C)n1-2 (some centres unmarked) [UB-180629] | > 1000 | 100 to 1000 | 
22 | Cc1sc2c(c1C)C(c1ccc(Cl)cc1)=N[C@@H](CC(=O)NCCCNCCCCCCCC(=O)Nc1cccc3c1CN(C1CCC(=O)NC1=O)C3=O)c1nnc(C)n1-2 (some centres unmarked) [UB-180630] | > 1000 | 100 to 1000 | 
23 | CC[C@@H]1C(=O)N(C)c2cnc(Nc3ccc(C(=O)NCCCNCCCCCCC(=O)Nc4cccc5c4CN(C4CCC(=O)NC4=O)C5=O)cc3OC)nc2N1C1CCCC1 (some centres unmarked) [UB-180631] |  | 10 to 100 | DC50 (BRD4; [5]): < 10 nM; DC50 (PLK1; 24 h, read-out: PLK1 DC50 (24 h)): 10 to 100 nM
24 | CC[C@@H]1C(=O)N(C)c2cnc(Nc3ccc(C(=O)NCCCNCCCCCCCC(=O)Nc4cccc5c4CN(C4CCC(=O)NC4=O)C5=O)cc3OC)nc2N1C1CCCC1 (some centres unmarked) [UB-180632] |  | 10 to 100 | DC50 (BRD4; 6 h, read-out: BRD4 DC50 (6 h)): < 10 nM; DC50 (PLK1; 6 h, read-out: PLK1 DC50 (6 h)): < 10 nM
25 | CC[C@@H]1C(=O)N(C)c2cnc(Nc3ccc(C(=O)NCCOCCOCCOCCNCCCC(=O)Nc4cccc5c4CN(C4CCC(=O)NC4=O)C5=O)cc3OC)nc2N1C1CCCC1 (some centres unmarked) [UB-180636] |  |  | EC50 ([2]; MV4;11 cells): 10 to 100 nM; DC50 (BRD4; 6 h, read-out: BRD4 DC50 (6 h)): 10 to 100 nM; DC50 (PLK1; 6 h, read-out: PLK1 DC50 (6 h)): 10 to 100 nM
26 | Cc1sc2c(c1C)C(c1ccc(Cl)cc1)=N[C@@H](CC(=O)NCCCNCCCC(=O)Nc1cccc3c1CN(C1CCC(=O)NC1=O)C3=O)c1nnc(C)n1-2 (some centres unmarked) [UB-180640] | > 1000 | 100 to 1000 | 
27 | Cc1sc2c(c1C)C(c1ccc(Cl)cc1)=N[C@@H](CC(=O)NCCCNCCCCC(=O)Nc1cccc3c1CN(C1CCC(=O)NC1=O)C3=O)c1nnc(C)n1-2 (some centres unmarked) [UB-180641] | > 1000 | 100 to 1000 | 
28 | Cc1sc2c(c1C)C(c1ccc(Cl)cc1)=N[C@@H](CC(=O)NCCCNCCCCCC(=O)Nc1cccc3c1CN(C1CCC(=O)NC1=O)C3=O)c1nnc(C)n1-2 (some centres unmarked) [UB-180642] | > 1000 | 100 to 1000 | 
29 | CC[C@@H]1C(=O)N(C)c2cnc(Nc3ccc(C(=O)NCCCNCCCCCC(=O)Nc4cccc5c4CN(C4CCC(=O)NC4=O)C5=O)cc3OC)nc2N1C1CCCC1 (some centres unmarked) [UB-180659] |  |  | EC50 ([2]; MV4;11 cells): 10 to 100 nM; DC50 (BRD4; [6]): < 10 nM; DC50 (PLK1; [7]): 100 to 1000 nM
30 | CC[C@@H]1C(=O)N(C)c2cnc(Nc3ccc(C(=O)NCCOCCOCCOCCNCC(=O)Nc4cccc5c4CN(C4CCC(=O)NC4=O)C5=O)cc3OC)nc2N1C1CCCC1 (some centres unmarked) [UB-180663] |  |  | EC50 ([2]; MV4;11 cells): 10 to 100 nM; DC50 (BRD4; [3]): < 10 nM; DC50 (BRD4; [6]): < 10 nM; DC50 (PLK1; [4]): < 10 nM; DC50 (PLK1; [7]): < 10 nM
31 | CC[C@@H]1C(=O)N(C)c2cnc(Nc3ccc(C(=O)NCCOCCOCCOCCNCCCCC(=O)Nc4cccc5c4CN(C4CCC(=O)NC4=O)C5=O)cc3OC)nc2N1C1CCCC1 (some centres unmarked) [UB-180666] |  | 10 to 100 | DC50 (BRD4; [6]): < 10 nM; DC50 (PLK1; [7]): 10 to 100 nM
32 | CC[C@@H]1C(=O)N(C)c2cnc(Nc3ccc(C(=O)NC4CCN(CCOCCN(CC)CC(=O)Nc5cccc6c5CN(C5CCC(=O)NC5=O)C6=O)CC4)cc3OC)nc2N1C1CCCC1 (some centres unmarked) [UB-180828] | 100 to 1000 | < 10 | 
